Reference: patent US7335359B2, “Glycosylated specificity exchangers” (Tripep AB, priority 2003, dated 2008)

Tested on: human Gal-alpha1,3-Gal-specific antibodies
Assay: Glycosylated peptide competitive assay on Gal-BSA coated plates with human sera IB72 (FIG. 4)
Format: binding
Settings: positive control, mixed with human sera IB72
Procedure: To further evaluate the ability of the glycosylated specificity exchangers to bind to a pathogen, a glycosylated peptide competitive assay was performed using the most reactive human sera (IB72). In brief, Gal-alpha1,3-Gal-labeled bovine serum albumin (Gal-BSA) was coated onto 96-well microplates in sodium carbonate buffer (pH: 9.6) at +4° C. overnight. Dilutions of human sera and dilutions of glyco-peptides (glycosylated HIV-specific ligand/receptor specificity exchangers or Gal-BSA) or non-glycosylated peptides (HIV-specific ligand/receptor specificity exchangers or BSA) were preincubated in phosphate-buffered saline (PBS) containing 1% bovine albumin, 2% goat serum and 0.05% Tween 20 at 37° C. for 1 h. The mixture was then added to the coated plates and incubated at 37° C. for 1 h, then washed 3 times with phosphate-buffered saline (PBS) containing 0.05% Tween 20 (pH: 7.4).
Bound antibodies were indicated with goat anti-human polyvalent Ig, conjugated with alkaline phosphatase. The plates were incubated and washed as described above. Plates were developed with phosphatase substrate at room temperature for 30 min, stopped with 1 M NaOH. Optical density (OD) at 405 nm/650 nm was determined to quantify the inhibition. […] Thus, specificity exchangers that bind Gal-alpha1,3-Gal-specific antibodies had been generated. […]

## Gal-alpha1,3-Gal-labeled bovine serum albumin [Gal-BSA]
  inhibition of human antibody binding to Gal-BSA: 100%
